Structures can show the parent of a compound that is named as a salt.
Test: Prospective, multinational, multicentre, double-blind, placebo-controlled clinical study in patients with a history of atrial fibrillation or atrial flutter
Type: in vivo
Experimental: The patients had to have a history of atrial fibrillation or flutter and/or could be in normal sinus rhythm or in atrial fibrillation or flutter at inclusion.
The patient recruitment was carried out by taking into account the following inclusion criteria:
Inclusion Criteria: • 1) One of the following risk factors had to be present: • age equal to or above 70, or even above 75, possibly combined with at least one of the risk factors below: • hypertension (taking antihypertensives of at least two different classes), • diabetes, • history of cerebral stroke (transient ischemic event or completed cerebral stroke) or of systemic embolism, • left atrial diameter greater than or equal to 50 mm measured by echocardiography, • left ventricular ejection fraction less than 40%, measured by two-dimensional echography; • 2) availability of an electrocardiogram carried out during the past 6 months in order to document the presence or the history of atrial fibrillation or flutter; • 3) availability of an electrocardiogram carried out during the past 6 months in order to document the presence or absence of normal sinus rhythm.
Treatment was initiated using tablets containing either the placebo or an amount of dronedarone hydrochloride corresponding to 400 mg of dronedarone at a rate of one tablet in the morning during or shortly after breakfast and one tablet in the evening during or shortly after dinner.
The anticipated duration of the treatment was variable according to the time at which each patient was included in the study, and could range from a minimum of 12 months for the last patient included up to a maximum corresponding to the entire duration of the study (12 months+duration of inclusion), i.e. approximately 30 months for the first patients included.
The potassium concentration-modulating effect is clearly documented in the study by virtue of the results of analyses of regular blood samples taken throughout the duration of the study in the context of the monitoring of vital parameters.
The variations in potassium (in mmol/l) between the first and the last administration of the medicament of the study are included in FIG. 1, in which B signifies basal level, D signifies day and M signifies month.
The number of patients with hypokalaemia was compared using Fischer's exact test. Hypokalaemia is defined as a concentration in potassium ion [K+] below 3 mmol/L.

[1] = among 2255 treated patients with a potassium measurement, from randomization until last administration

| Compound | number of patients with hypokalaemia ([K+] below 3 mmol/L) [1] | proportion of patients with hypokalaemia ([K+] below 3 mmol/L) [1] | change in blood potassium level (analysis of covariance, taking into account the starting value) (compared to placebo, after the 24th month, 400 mg dronedarone twice daily, p<0.0001) | reduction in the risk of sudden death (hypertensive patients) | reduction in the risk of sudden death compared with the placebo (patients not taking diuretics) | reduction in the risk of sudden death compared with the placebo (patients on diuretics) | reduction in the risk of sudden death (patients who were not hypertensive) |
| --- | --- | --- | --- | --- | --- | --- | --- |
| CCCCc1oc2ccc(NS(C)(=O)=O)cc2c1C(=O)c1ccc(OCCCN(CCCC)CCCC)cc1 [dronedarone hydrochloride] | 14 patients | 0.6% |  |  |  |  |  |
| CCCCc1oc2ccc(NS(C)(=O)=O)cc2c1C(=O)c1ccc(OCCCN(CCCC)CCCC)cc1 [dronedarone, 2-n-Butyl-3-[4-(3-di-n-butylaminopropoxy)benzoyl]-5-methylsulphonamidobenzofuran] |  |  | significant difference in favour of dronedarone | 62% | 34% | 70.4% | 45.5% |

From US20110124724A1, “USE OF DRONEDARONE OR A PHARMACEUTICALLY ACCEPTABLE SALT THEREOF, FOR THE PREPARATION OF A MEDICAMENT FOR REGULATING THE POTASIUM LEVEL IN THE BLOOD” (SANOFI-AVENTIS, priority 2008, published 2011)
